Results: patent US9113629B2, “4-amino-6-(4-substituted-phenyl)-picolinates and 6-amino-2-(4-substituted-phenyl)-pyrimidine-4-carboxylates and their use as herbicides” (DOW AGROSCIENCES LLC, priority 2013, dated 2015)

What follows are molecules tested on HORSS: barley, including spring and winter (Hordeum vulgare) (assay: Post-emergent Test III, herbicidal activity in wheat and barley). Settings: Hordeum vulgare, post-emergence, 504 h; 35 g ai/ha; 21 days after application; read-out: Visual Gorowth Reduction (%) 21 days After Application HORSS.
Type: in vivo
Summary of the method: (§1)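 Plants at the second to third true-leaf stage, grown in a greenhouse at about 18/17 °C with a 14 h photoperiod, were sprayed post-emergence at 187 L/ha with the high rate and ½× to 1/16× serial dilutions in an acetone/DMSO/crop-oil/surfactant carrier. Injury was rated visually at 21 d on a 0–100% scale, and GR20–GR90 were derived by probit analysis.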
Work on `COC(=O)c1nc(-c2ccc(Br)cc2F)c(F)c(N)c1Cl` [Compound 52] yielded a pest or weed control at 35 g/ha of 85 to 94%. For `COc1c(N)nc(-c2ccc(I)cc2F)nc1C(=O)O` [Compound 72], the pest or weed control at 35 g/ha was 45 to 59%.

Same assay, conditions: Hordeum vulgare, post-emergence, 504 h; 70 g ai/ha; 21 days after application; read-out: Visual Gorowth Reduction (%) 21 days After Application HORSS
With `COC(=O)c1nc(-c2ccc(Br)cc2F)c(F)c(N)c1Cl` [Compound 52] the pest or weed control at 70 g/ha was 95 to 100%. `COc1c(N)nc(-c2ccc(I)cc2F)nc1C(=O)O` [Compound 72] was tested, and the pest or weed control at 70 g/ha was 60 to 74%.

Same assay, conditions: probit analysis; dose for 20 percent growth reduction (crop); 21 days after application
With `COC(=O)c1nc(-c2ccc(Br)cc2F)c(F)c(N)c1Cl` [Compound 52] the “GR20 HORSS” value was 1 g ai/ha. `COc1c(N)nc(-c2ccc(I)cc2F)nc1C(=O)O` [Compound 72] was tested, and the “GR20 HORSS” value was 5 g ai/ha.

These molecules were tested on KCHSC: kochia (Kochia scoparia) in the same assay as above. Settings: Bassia scoparia, post-emergence, 504 h; 35 g ai/ha; 21 days after application; read-out: Visual Gorowth Reduction (%) 21 days After Application KCHSC.
Type: in vivo
Summary of the method: as §1
`COC(=O)c1nc(-c2ccc(Br)cc2F)c(F)c(N)c1Cl` [Compound 52] showed a pest or weed control at 35 g/ha of 75 to 84%. For `COc1c(N)nc(-c2ccc(I)cc2F)nc1C(=O)O` [Compound 72], the pest or weed control at 35 g/ha was 60 to 74%.

Same assay, conditions: Bassia scoparia, post-emergence, 504 h; 70 g ai/ha; 21 days after application; read-out: Visual Gorowth Reduction (%) 21 days After Application KCHSC
For `COC(=O)c1nc(-c2ccc(Br)cc2F)c(F)c(N)c1Cl` [Compound 52], the pest or weed control at 70 g/ha was 85 to 94%. `COc1c(N)nc(-c2ccc(I)cc2F)nc1C(=O)O` [Compound 72] gave a pest or weed control at 70 g/ha of 60 to 74%.

Same assay, conditions: probit analysis; dose for 50 percent growth reduction; 21 days after application
`COC(=O)c1nc(-c2ccc(Br)cc2F)c(F)c(N)c1Cl` [Compound 52] was tested, and the “GR50 KCHSC” value was 5 g ai/ha. With `COc1c(N)nc(-c2ccc(I)cc2F)nc1C(=O)O` [Compound 72] the “GR50 KCHSC” value was 27 g ai/ha.

Same assay, conditions: probit analysis; dose for 80 percent growth reduction; 21 days after application
With `COC(=O)c1nc(-c2ccc(Br)cc2F)c(F)c(N)c1Cl` [Compound 52] the “GR80 KCHSC” value was 38 g ai/ha. `COc1c(N)nc(-c2ccc(I)cc2F)nc1C(=O)O` [Compound 72] was tested, and the “GR80 KCHSC” value was 105 g ai/ha.

What follows are molecules tested on MATSS: scented mayweed (Matricaria chamomilla), pineappleweed (Matricaria matricarioides) in the same assay as above. Settings: Matricaria chamomilla, post-emergence, 504 h; 35 g ai/ha; 21 days after application; read-out: Visual Gorowth Reduction (%) 21 days After Application MATSS.
Type: in vivo
Summary of the method: as §1
`COC(=O)c1nc(-c2ccc(Br)cc2F)c(F)c(N)c1Cl` [Compound 52] was tested, and the pest or weed control at 35 g/ha was 0 to 29%. `COc1c(N)nc(-c2ccc(I)cc2F)nc1C(=O)O` [Compound 72] showed a pest or weed control at 35 g/ha of 0 to 29%.

Same assay, conditions: Matricaria chamomilla, post-emergence, 504 h; 70 g ai/ha; 21 days after application; read-out: Visual Gorowth Reduction (%) 21 days After Application MATSS
In the case of `COC(=O)c1nc(-c2ccc(Br)cc2F)c(F)c(N)c1Cl` [Compound 52], the pest or weed control at 70 g/ha is reported as 60 to 74%. Work on `COc1c(N)nc(-c2ccc(I)cc2F)nc1C(=O)O` [Compound 72] yielded a pest or weed control at 70 g/ha of 30 to 44%.

Same assay, conditions: probit analysis; dose for 50 percent growth reduction; 21 days after application
With `COC(=O)c1nc(-c2ccc(Br)cc2F)c(F)c(N)c1Cl` [Compound 52] the “GR50 MATSS” value was 62 g ai/ha. In the case of `COc1c(N)nc(-c2ccc(I)cc2F)nc1C(=O)O` [Compound 72], the “GR50 MATSS” value is reported as 126 g ai/ha.

Same assay, conditions: probit analysis; dose for 80 percent growth reduction; 21 days after application
In the case of `COC(=O)c1nc(-c2ccc(Br)cc2F)c(F)c(N)c1Cl` [Compound 52], the “GR80 MATSS” value is reported as 91 g ai/ha. For `COc1c(N)nc(-c2ccc(I)cc2F)nc1C(=O)O` [Compound 72], the “GR80 MATSS” value was >140 g ai/ha.

What follows are molecules tested on SASKR: Russian thistle (Salsola iberica) in the same assay as above. Settings: Salsola tragus, post-emergence, 504 h; 35 g ai/ha; 21 days after application; read-out: Visual Gorowth Reduction (%) 21 days After Application SASKR.
Type: in vivo
Summary of the method: as §1
With `COC(=O)c1nc(-c2ccc(Br)cc2F)c(F)c(N)c1Cl` [Compound 52] the pest or weed control at 35 g/ha was 60 to 74%. `COc1c(N)nc(-c2ccc(I)cc2F)nc1C(=O)O` [Compound 72] was tested, and the pest or weed control at 35 g/ha was 30 to 44%.

Same assay, conditions: Salsola tragus, post-emergence, 504 h; 70 g ai/ha; 21 days after application; read-out: Visual Gorowth Reduction (%) 21 days After Application SASKR
With `COC(=O)c1nc(-c2ccc(Br)cc2F)c(F)c(N)c1Cl` [Compound 52] the pest or weed control at 70 g/ha was 75 to 84%. In the case of `COc1c(N)nc(-c2ccc(I)cc2F)nc1C(=O)O` [Compound 72], the pest or weed control at 70 g/ha is reported as 60 to 74%.

Same assay, conditions: probit analysis; dose for 50 percent growth reduction; 21 days after application
With `COC(=O)c1nc(-c2ccc(Br)cc2F)c(F)c(N)c1Cl` [Compound 52] the “GR50 SASKR” value was 4 g ai/ha. With `COc1c(N)nc(-c2ccc(I)cc2F)nc1C(=O)O` [Compound 72] the “GR50 SASKR” value was 48 g ai/ha.

Same assay, conditions: probit analysis; dose for 80 percent growth reduction; 21 days after application
`COC(=O)c1nc(-c2ccc(Br)cc2F)c(F)c(N)c1Cl` [Compound 52] was tested, and the “GR80 SASKR” value was 84 g ai/ha. `COc1c(N)nc(-c2ccc(I)cc2F)nc1C(=O)O` [Compound 72] was tested, and the “GR80 SASKR” value was 106 g ai/ha.

What follows are molecules tested on TRZSS: wheat, including spring and winter (Triticum aestivum) in the same assay as above. Settings: Triticum aestivum, post-emergence, 504 h; 35 g ai/ha; 21 days after application; read-out: Visual Gorowth Reduction (%) 21 days After Application TRZSS.
Type: in vivo
Summary of the method: as §1
`COC(=O)c1nc(-c2ccc(Br)cc2F)c(F)c(N)c1Cl` [Compound 52] showed a pest or weed control at 35 g/ha of 85 to 94%. For `COc1c(N)nc(-c2ccc(I)cc2F)nc1C(=O)O` [Compound 72], the pest or weed control at 35 g/ha was 75 to 84%.

Same assay, conditions: Triticum aestivum, post-emergence, 504 h; 70 g ai/ha; 21 days after application; read-out: Visual Gorowth Reduction (%) 21 days After Application TRZSS
In the case of `COC(=O)c1nc(-c2ccc(Br)cc2F)c(F)c(N)c1Cl` [Compound 52], the pest or weed control at 70 g/ha is reported as 85 to 94%. `COc1c(N)nc(-c2ccc(I)cc2F)nc1C(=O)O` [Compound 72] gave a pest or weed control at 70 g/ha of 85 to 94%.

Same assay, conditions: probit analysis; dose for 20 percent growth reduction (crop); 21 days after application
In the case of `COC(=O)c1nc(-c2ccc(Br)cc2F)c(F)c(N)c1Cl` [Compound 52], the “GR20 TRZSS” value is reported as 1 g ai/ha. In the case of `COc1c(N)nc(-c2ccc(I)cc2F)nc1C(=O)O` [Compound 72], the “GR20 TRZSS” value is reported as 1 g ai/ha.

What follows are molecules tested on VERPE: bird's-eye speedwell (veronica persica) in the same assay as above. Settings: Veronica persica, post-emergence, 504 h; 35 g ai/ha; 21 days after application; read-out: Visual Gorowth Reduction (%) 21 days After Application VERPE.
Type: in vivo
Summary of the method: as §1
`COC(=O)c1nc(-c2ccc(Br)cc2F)c(F)c(N)c1Cl` [Compound 52] gave a pest or weed control at 35 g/ha of 75 to 84%. With `COc1c(N)nc(-c2ccc(I)cc2F)nc1C(=O)O` [Compound 72] the pest or weed control at 35 g/ha was 85 to 94%.

Same assay, conditions: Veronica persica, post-emergence, 504 h; 70 g ai/ha; 21 days after application; read-out: Visual Gorowth Reduction (%) 21 days After Application VERPE
Work on `COC(=O)c1nc(-c2ccc(Br)cc2F)c(F)c(N)c1Cl` [Compound 52] yielded a pest or weed control at 70 g/ha of 95 to 100%. `COc1c(N)nc(-c2ccc(I)cc2F)nc1C(=O)O` [Compound 72] gave a pest or weed control at 70 g/ha of 95 to 100%.

Same assay, conditions: probit analysis; dose for 50 percent growth reduction; 21 days after application
In the case of `COC(=O)c1nc(-c2ccc(Br)cc2F)c(F)c(N)c1Cl` [Compound 52], the “GR50 VERPE” value is reported as 20 g ai/ha. `COc1c(N)nc(-c2ccc(I)cc2F)nc1C(=O)O` [Compound 72] was tested, and the “GR50 VERPE” value was 1 g ai/ha.

Same assay, conditions: probit analysis; dose for 80 percent growth reduction; 21 days after application
In the case of `COC(=O)c1nc(-c2ccc(Br)cc2F)c(F)c(N)c1Cl` [Compound 52], the “GR80 VERPE” value is reported as 37 g ai/ha. With `COc1c(N)nc(-c2ccc(I)cc2F)nc1C(=O)O` [Compound 72] the “GR80 VERPE” value was 8 g ai/ha.

The molecules below were run on VIOSS: wild pansy (Viola tricolor), field violet (Viola arvensis) in the same assay as above. Settings: Viola tricolor, post-emergence, 504 h; 35 g ai/ha; 21 days after application; read-out: Visual Gorowth Reduction (%) 21 days After Application VIOSS.
Type: in vivo
Summary of the method: as §1
`COC(=O)c1nc(-c2ccc(Br)cc2F)c(F)c(N)c1Cl` [Compound 52] showed a pest or weed control at 35 g/ha of 95 to 100%. `COc1c(N)nc(-c2ccc(I)cc2F)nc1C(=O)O` [Compound 72] was tested, and the pest or weed control at 35 g/ha was 30 to 44%.

Same assay, conditions: Viola tricolor, post-emergence, 504 h; 70 g ai/ha; 21 days after application; read-out: Visual Gorowth Reduction (%) 21 days After Application VIOSS
In the case of `COC(=O)c1nc(-c2ccc(Br)cc2F)c(F)c(N)c1Cl` [Compound 52], the pest or weed control at 70 g/ha is reported as 95 to 100%. In the case of `COc1c(N)nc(-c2ccc(I)cc2F)nc1C(=O)O` [Compound 72], the pest or weed control at 70 g/ha is reported as 45 to 59%.

Same assay, conditions: probit analysis; dose for 50 percent growth reduction; 21 days after application
In the case of `COC(=O)c1nc(-c2ccc(Br)cc2F)c(F)c(N)c1Cl` [Compound 52], the “GR50 VIOSS” value is reported as 12 g ai/ha. `COc1c(N)nc(-c2ccc(I)cc2F)nc1C(=O)O` [Compound 72] was tested, and the “GR50 VIOSS” value was 67 g ai/ha.

Same assay, conditions: probit analysis; dose for 80 percent growth reduction; 21 days after application
`COC(=O)c1nc(-c2ccc(Br)cc2F)c(F)c(N)c1Cl` [Compound 52] was tested, and the “GR80 VIOSS” value was 19 g ai/ha. With `COc1c(N)nc(-c2ccc(I)cc2F)nc1C(=O)O` [Compound 72] the “GR80 VIOSS” value was >140 g ai/ha.
